ChEMBL document CHEMBL1201862, “PubChem BioAssay data set” (2004)
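96-well plates; 48 h exposure; 5 concentrations. Endpoints by linear interpolation between flanking doses. Not reached: highest tested concentration assigned. GI50: concentration for 50% inhibition of growth.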 The source made the active and inactive calls. Cut-off read from the data, not from the text of the source: active = GI50 up to about 1.1 µM and inactive = higher.

Legend:
Test in all cases: NCI tumour cell line growth inhibition, 48 h
786-0 = test system: 786-0
A549 = test system: A549
CAKI-1 = test system: CAKI-1
CCRF-CEM = test system: CCRF-CEM
COLO 205 = test system: COLO 205
DLD-1 = test system: DLD-1
DMS-114 = test system: DMS-114
DMS-273 = test system: DMS-273
EKVX = test system: EKVX
HCC 2998 = test system: HCC 2998
HCT-116 = test system: HCT-116
HCT-15 = test system: HCT-15
HL-60 = test system: HL-60
HOP-18 = test system: HOP-18
HOP-62 = test system: HOP-62
HOP-92 = test system: HOP-92
HT-29 = test system: HT-29
IGROV-1 = test system: IGROV-1
K562 = test system: K562
KM-20L2 = test system: KM-20L2
KM12 = test system: KM12
LOX IMVI = test system: LOX IMVI
M14 = test system: M14
M19-MEL = test system: M19-MEL
MOLT-4 = test system: MOLT-4
Malme-3M = test system: Malme-3M
NCI-H226 = test system: NCI-H226
NCI-H23 = test system: NCI-H23
NCI-H522 = test system: NCI-H522
OVCAR-3 = test system: OVCAR-3
OVCAR-4 = test system: OVCAR-4
OVCAR-5 = test system: OVCAR-5
OVCAR-8 = test system: OVCAR-8
RPMI-8226 = test system: RPMI-8226
RXF 393 = test system: RXF 393
SF-268 = test system: SF-268
SF-295 = test system: SF-295
SF-539 = test system: SF-539
SK-MEL-28 = test system: SK-MEL-28
SK-MEL-2 = test system: SK-MEL-2
SK-MEL-5 = test system: SK-MEL-5
SK-OV-3 = test system: SK-OV-3
SN12C = test system: SN12C
SNB-19 = test system: SNB-19
SNB-75 = test system: SNB-75
SNB-78 = test system: SNB-78
SR = test system: SR
SW-620 = test system: SW-620
TK-10 = test system: TK-10
U-251 = test system: U-251
UACC-257 = test system: UACC-257
UACC-62 = test system: UACC-62
UO-31 = test system: UO-31
XF498 = test system: XF498

C1OC1C1CO1 (centres undefined)
GI50 (786-0): 24.2 µM (inactive)
GI50 (A549): 30.1 µM (inactive)
GI50 (CAKI-1): > 100 µM (inactive)
GI50 (CCRF-CEM): 3.34 µM (inactive)
GI50 (COLO 205): > 100 µM (inactive)
GI50 (DLD-1): > 100 µM (inactive)
GI50 (DMS-114): 10.4 µM (inactive)
GI50 (DMS-273): 10.4 µM (inactive)
GI50 (EKVX): > 100 µM (inactive)
GI50 (HCC 2998): 96.4 µM (inactive)
GI50 (HCT-116): 95.1 µM (inactive)
GI50 (HCT-15): > 100 µM
GI50 (HL-60): 3.14 µM (inactive)
GI50 (HOP-18): > 100 µM (inactive)
GI50 (HOP-62): 17.3 µM (inactive)
GI50 (HOP-92): > 100 µM (inactive)
GI50 (HT-29): > 100 µM (inactive)
GI50 (IGROV-1): > 100 µM (inactive)
GI50 (K562): 80.2 µM (inactive)
GI50 (KM-20L2): 98.2 µM (inactive)
GI50 (KM12): > 100 µM (inactive)
GI50 (LOX IMVI): 21.1 µM (inactive)
GI50 (M14): > 100 µM (inactive)
GI50 (M19-MEL): 58.9 µM (inactive)
GI50 (MOLT-4): 3.28 µM (inactive)
GI50 (Malme-3M): > 100 µM (inactive)
GI50 (NCI-H226): > 100 µM (inactive)
GI50 (NCI-H23): 18.1 µM (inactive)
GI50 (NCI-H522): 33.6 µM (inactive)
GI50 (OVCAR-3): 39.7 µM (inactive)
GI50 (OVCAR-4): > 100 µM (inactive)
GI50 (OVCAR-5): > 100 µM (inactive)
GI50 (OVCAR-8): > 100 µM (inactive)
GI50 (RPMI-8226): > 100 µM (inactive)
GI50 (RXF 393): 48.4 µM (inactive)
GI50 (SF-268): 6.43 µM (inactive)
GI50 (SF-295): 10.3 µM (inactive)
GI50 (SF-539): 59.8 µM (inactive)
GI50 (SK-MEL-28): 51.8 µM (inactive)
GI50 (SK-MEL-2): > 100 µM (inactive)
GI50 (SK-MEL-5): 45.2 µM (inactive)
GI50 (SK-OV-3): 57.8 µM (inactive)
GI50 (SN12C): 93.1 µM (inactive)
GI50 (SNB-19): > 100 µM (inactive)
GI50 (SNB-75): 14.6 µM (inactive)
GI50 (SNB-78): 87.3 µM (inactive)
GI50 (SR): 3.88 µM (inactive)
GI50 (SW-620): 86.3 µM (inactive)
GI50 (TK-10): > 100 µM (inactive)
GI50 (U-251): 20.1 µM (inactive)
GI50 (UACC-257): 27.9 µM (inactive)
GI50 (UACC-62): 13.6 µM (inactive)
GI50 (UO-31): > 100 µM (inactive)
GI50 (XF498): > 100 µM (inactive)
